Columns and labels:
[1] = biological target: T1, Lysosomal acid glucosylceramidase (Mus musculus, UniProt P17439); assay: Inhibitory activity against Glucosylceramidase in mouse liver; type: tissue-based
T1 sequence (P17439 whole entry): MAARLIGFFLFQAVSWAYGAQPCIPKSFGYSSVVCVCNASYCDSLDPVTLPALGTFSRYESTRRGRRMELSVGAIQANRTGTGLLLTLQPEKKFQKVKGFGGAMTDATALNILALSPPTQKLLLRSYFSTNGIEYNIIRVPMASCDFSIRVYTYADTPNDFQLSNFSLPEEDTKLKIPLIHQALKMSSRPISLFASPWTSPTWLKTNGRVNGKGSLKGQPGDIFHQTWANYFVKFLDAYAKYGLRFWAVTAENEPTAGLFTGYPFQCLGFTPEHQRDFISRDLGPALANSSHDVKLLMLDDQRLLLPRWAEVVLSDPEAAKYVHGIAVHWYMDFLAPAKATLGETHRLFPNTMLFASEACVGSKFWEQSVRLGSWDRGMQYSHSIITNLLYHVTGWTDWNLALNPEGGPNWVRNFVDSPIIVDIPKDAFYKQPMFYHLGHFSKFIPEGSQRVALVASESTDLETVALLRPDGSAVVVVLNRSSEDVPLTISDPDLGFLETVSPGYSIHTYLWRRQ

[2] = biological target: T1, Lysosomal acid glucosylceramidase; assay: Inhibitory activity against Glucosylceramidase in mouse liver at a concentration of 10e-4 M; NA is inactive; type: tissue-based
[3] = biological target: T1, Lysosomal acid glucosylceramidase; assay: Inhibitory activity against Glucosylceramidase in mouse liver; Significant activity
Galactocerebrosidase = biological target: T2, Galactocerebrosidase (Mus musculus, UniProt P54818); assay: Inhibitory activity against Galactocerebrosidase; NA is not active
T2 sequence (P54818 whole entry): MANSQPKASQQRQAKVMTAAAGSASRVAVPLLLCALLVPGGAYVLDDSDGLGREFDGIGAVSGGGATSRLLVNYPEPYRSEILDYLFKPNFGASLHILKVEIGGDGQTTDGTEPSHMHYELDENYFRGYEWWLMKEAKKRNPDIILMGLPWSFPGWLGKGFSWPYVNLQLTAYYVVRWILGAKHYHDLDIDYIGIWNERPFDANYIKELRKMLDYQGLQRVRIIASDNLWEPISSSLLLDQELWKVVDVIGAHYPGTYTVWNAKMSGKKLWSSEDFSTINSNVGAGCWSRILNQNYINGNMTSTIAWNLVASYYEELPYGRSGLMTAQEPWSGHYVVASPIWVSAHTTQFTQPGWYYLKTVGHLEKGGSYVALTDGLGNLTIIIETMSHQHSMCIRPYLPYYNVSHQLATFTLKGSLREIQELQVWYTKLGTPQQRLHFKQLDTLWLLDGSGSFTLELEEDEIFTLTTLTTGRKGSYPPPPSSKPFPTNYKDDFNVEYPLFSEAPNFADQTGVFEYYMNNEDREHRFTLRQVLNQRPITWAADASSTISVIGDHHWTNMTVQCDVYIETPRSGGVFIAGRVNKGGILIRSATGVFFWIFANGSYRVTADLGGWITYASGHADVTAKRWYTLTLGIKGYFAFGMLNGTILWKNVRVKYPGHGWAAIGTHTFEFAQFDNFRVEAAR

[4] = biological target: T1, Lysosomal acid glucosylceramidase; assay: Inhibitory activity against Glucosylceramidase in mouse liver relative to compound 5; Active; type: tissue-based
[5] = biological target: T1, Lysosomal acid glucosylceramidase; assay: Specific inhibitory activity against Glucosylceramidase in mouse liver; type: tissue-based
[6] = biological target: T1, Lysosomal acid glucosylceramidase; assay: Specific inhibitory activity against Glucosylceramidase in mouse liver; Significant activity

O[C@@H]1[C@H]2O[C@H]2[C@H](O)C[C@H]1O
IC50 [1]: 98 µM

O[C@H]1[C@H](O)[C@H](O)C[C@@H]2O[C@H]12
IC50 [2]: Not Active

O[C@@H]1[C@H](O)[C@H](O)C[C@H]2O[C@@H]12
IC50 [2]: Not Active

O[C@@H]1[C@H](O)[C@H]2O[C@H]2C[C@@H]1O
IC50 [2]: Not Active

O[C@H]1[C@@H]2O[C@@H]2[C@@H](O)C[C@H]1O
IC50 [2]: Not Active

O[C@@H]1[C@@H](O)[C@H](O)C[C@H](O)[C@@H]1O
IC50 [3]: Significant activity

O[C@@H]1[C@@H](O)[C@H](O)C[C@H]2O[C@@H]12
IC50 [1]: 0.96 µM
IC50 (Galactocerebrosidase): Not Active

O[C@@H]1[C@H]2O[C@H]2[C@H](O)C[C@@H]1O
IC50 [2]: Not Active

O[C@@H]1[C@H](O)[C@H]2O[C@H]2C[C@H]1O
IC50 [2]: Not Active

O[C@@H]1[C@H]2O[C@H]2[C@@H](O)C[C@H]1O
IC50 [2]: Not Active

O[C@@H]1[C@@H](O)[C@H](O)C[C@@H]2O[C@H]12
IC50 [4]: Active

O[C@@H]1[C@@H](O)[C@H](O)C[C@@H](O)[C@H]1O
IC50 [3]: Significant activity

O[C@H]1[C@H]2O[C@H]2[C@H](O)C[C@H]1O
IC50 [2]: Not Active

O[C@H]1[C@@H]2O[C@@H]2[C@H](O)C[C@@H]1O
IC50 [4]: Active

O[C@H]1[C@H](O)[C@@H](O)[C@@H]2O[C@@H]2[C@@H]1O [CONDURITOL B EPOXIDE]
IC50 [5]: 8.9 µM

OC[C@@H]1[C@@H](O)[C@H](O)[C@@H](O)[C@@H]2O[C@H]12 [CYCLOPHELLITOL]
IC50 [6]: Significant activity

Reference: ChEMBL document CHEMBL1132265, “Synthesis and evaluation of glucocerebrosidase inhibitory activity of anhydro deoxyinositols from (+)-epi- and (-)-vibo-quercitols” (Bioorg Med Chem Lett, 1999)
